Data: publication PMC10539350 (Scientific Reports, 2023)
Converted amounts (≈) assume the structure as drawn. Where two headings read alike, the source gives them in different places.

Tests used:
[1] = test system: M. tuberculosis SIRE Ciprofloxacin resistant 22/22; assay type: cell-based, Mycobacterium tuberculosis; design: unit not given beside the values
[2] = test system: M. tuberculosis SIRE Ciprofloxacin resistant 22/22; test: tuberculostatic activity, broth microdilution MIC (Alamar blue); assay type: cell-based, Mycobacterium tuberculosis
[3] = Mycobacterium tuberculosis; read-out: Minimal inhibitory concentration
[4] = Mycobacterium tuberculosis, read-out: Minimal inhibitory concentration

Structure (SMILES): O=C(O)c1cn(C2CC2)c2cc(N3CCNCC3)c(F)cc2c1=O [Ciprofloxacin, reference compound]
- MIC for reference drug in the presence of derivative 6 [1]: 8

Structure (SMILES): CC1CCC(C(C)C)C(OCC(=O)N2CCN(c3cc4c(cc3F)c(=O)c(C(=O)O)cn4C3CC3)CC2)C1 (stereo not drawn) [Compound 1]
- MIC [2, 3]: 32 µg/mL (≈ 60.6 µM)

Structure (SMILES): CC1CCC(C(C)C)C(OC(=O)CN2CCN(c3cc4c(cc3F)c(=O)c(C(=O)O)cn4C3CC3)CC2)C1 (stereo not drawn) [Compound 2]
- MIC [2, 3]: 16 µg/mL (≈ 30.3 µM)

Structure (SMILES): CC1CCC(C(C)C)C(OC(=O)CCN2CCN(c3cc4c(cc3F)c(=O)c(C(=O)O)cn4C3CC3)CC2)C1 (stereo not drawn) [Compound 3]
- MIC [2, 3]: 16 µg/mL (≈ 29.5 µM)

Structure (SMILES): CC1CCC(C(C)C)C(OC(=O)CCCN2CCN(c3cc4c(cc3F)c(=O)c(C(=O)O)cn4C3CC3)CC2)C1 (stereo not drawn) [Compound 4]
- MIC [2, 3]: 16 µg/mL (≈ 28.8 µM)

Structure (SMILES): CC1CCC(C(C)C)C(OC(=O)CCCCN2CCN(c3cc4c(cc3F)c(=O)c(C(=O)O)cn4C3CC3)CC2)C1 (stereo not drawn) [Compound 5]
- MIC [2, 3]: 16 µg/mL (≈ 28.1 µM)

Structure (SMILES): CC(C)[C@@H]1CC[C@@H](C)C[C@H]1OC(=O)CCCCCN1CCN(c2cc3c(cc2F)c(=O)c(C(=O)O)cn3C2CC2)CC1 [Compound 6, 1‐cyclopropyl‐6‐fluoro‐7‐{4‐[6‐((1R,2S,5R)‐2‐isopropyl‐5‐methylcyclohexyloxy)‐6‐oxohexyl]piperazin‐1‐yl}‐4‐oxo‐1,4‐dihydroquinoline‐3‐carboxylic acid]
- MIC [2, 3]: 8 µg/mL (≈ 13.7 µM)

Structure (SMILES): CC1CCC(C(C)C)C(OC(=O)CCCCOC(=O)c2cn(C3CC3)c3cc(N4CCN(CCCCC(=O)OC5CC(C)CCC5C(C)C)CC4)c(F)cc3c2=O)C1 (stereo not drawn) [Compound 7]
- MIC [2, 3]: 256 µg/mL (≈ 317 µM)

Structure (SMILES): CC1CCC(C(C)C)C(OC(=O)CCCCCOC(=O)c2cn(C3CC3)c3cc(N4CCN(CCCCCC(=O)OC5CC(C)CCC5C(C)C)CC4)c(F)cc3c2=O)C1 (stereo not drawn) [Compound 8]
- MIC [2, 3]: 256 µg/mL (≈ 306 µM)

Structure (SMILES): Cc1ccc(C(C)C)c(OCC(=O)N2CCN(c3cc4c(cc3F)c(=O)c(C(=O)O)cn4C3CC3)CC2)c1 [Compound 9]
- MIC [2, 3]: 128 µg/mL (≈ 245 µM)

Structure (SMILES): Cc1ccc(C(C)C)c(OC(=O)CN2CCN(c3cc4c(cc3F)c(=O)c(C(=O)O)cn4C3CC3)CC2)c1 [Compound 10]
- MIC [2, 3]: 128 µg/mL (≈ 245 µM)

Structure (SMILES): Cc1ccc(C(C)C)c(OC(=O)CCN2CCN(c3cc4c(cc3F)c(=O)c(C(=O)O)cn4C3CC3)CC2)c1 [Compound 11]
- MIC [2, 3]: 64 µg/mL (≈ 119 µM)

Structure (SMILES): Cc1ccc(C(C)C)c(OC(=O)CCCN2CCN(c3cc4c(cc3F)c(=O)c(C(=O)O)cn4C3CC3)CC2)c1 [Compound 12]
- MIC [2, 3]: 32 µg/mL (≈ 58.2 µM)

Structure (SMILES): Cc1ccc(C(C)C)c(OC(=O)CCCCN2CCN(c3cc4c(cc3F)c(=O)c(C(=O)O)cn4C3CC3)CC2)c1 [Compound 13]
- MIC [2, 3]: 32 µg/mL (≈ 56.8 µM)

Structure (SMILES): Cc1ccc(C(C)C)c(OC(=O)CCCCCN2CCN(c3cc4c(cc3F)c(=O)c(C(=O)O)cn4C3CC3)CC2)c1 [Compound 14]
- MIC [2, 3]: 16 µg/mL (≈ 27.7 µM)

Structure (SMILES): Cc1ccc(C(C)C)c(OC(=O)CCCOC(=O)c2cn(C3CC3)c3cc(N4CCN(CCCC(=O)Oc5cc(C)ccc5C(C)C)CC4)c(F)cc3c2=O)c1 [Compound 15]
- MIC [2, 3]: 256 µg/mL (≈ 333 µM)

Structure (SMILES): Cc1ccc(C(C)C)c(OC(=O)CCCCCOC(=O)c2cn(C3CC3)c3cc(N4CCN(CCCCCC(=O)Oc5cc(C)ccc5C(C)C)CC4)c(F)cc3c2=O)c1 [Compound 16]
- MIC [2, 3]: 256 µg/mL (≈ 311 µM)

Structure (SMILES): CC[C@@H](CO)NCCN[C@@H](CC)CO [Ethambutol, reference compound]
- MIC [2, 3]: 4 µg/mL (≈ 19.6 µM)

Structure (SMILES): NNC(=O)c1ccncc1 [Isoniazid, reference compound]
- MIC [2, 3]: 32 µg/mL (≈ 233 µM)

Structure (SMILES): CC(=O)NC[C@H]1CN(c2ccc(N3CCOCC3)c(F)c2)C(=O)O1 [Linezolid, reference compound]
- MIC [2, 4]: 8 µg/mL (≈ 23.7 µM)
- MIC for reference drug in the presence of derivative 6 [1]: 4

Structure (SMILES): CO[C@H]1/C=C/O[C@@]2(C)Oc3c(C)c(O)c4c(O)c(c(/C=N/N5CCN(C)CC5)c(O)c4c3C2=O)NC(=O)/C(C)=C\C=C\[C@H](C)[C@H](O)[C@@H](C)[C@@H](O)[C@@H](C)[C@H](OC(C)=O)[C@@H]1C [Rifampicin, reference compound]
- activity in words [2]: no activity
- MIC [2, 4]: 256 µg/mL (≈ 311 µM)

Structure (SMILES): [H]/N=C(/N)N[C@H]1[C@H](O)[C@@H](O)[C@H](O[C@@H]2O[C@@H](C)[C@](O)(C=O)[C@H]2O[C@@H]2O[C@@H](CO)[C@H](O)[C@@H](O)[C@@H]2NC)[C@@H](N/C(N)=N\[H])[C@@H]1O [Streptomycin, reference compound]
- MIC [2, 3]: 32 µg/mL (≈ 55 µM)
